Assay results as given in US20180015038A1, “OMEGA-3 FATTY ACID SELF-EMULSIFYING COMPOSITION” (MOCHIDA PHARMACEUTICAL CO., LTD., priority 2015, published 2018).

Experiment: Evaluation of appearance (Test Example 1)
Type: physicochemical
Conditions: allowed to stand, about 1 hour after production; transparent / separated / cloudy
Protocol: After producing the pharmaceutical compositions and the self-emulsifying compositions of Reference Examples by the production methods as described above, the compositions were allowed to stand, and after about 1 hour, their appearance was evaluated. The composition was evaluated “transparent” when the composition was homogeneous due to the good compatibility. The composition was evaluated “separated” when the separation was observed and “cloudy” when opacity was observed.

Appearance: good appearance was not realized
SMILES: CC(C)c1c(C(=O)Nc2ccccc2)c(-c2ccccc2)c(-c2ccc(F)cc2)n1CC[C@@H](O)C[C@@H](O)CC(=O)[O-].CC(C)c1c(C(=O)Nc2ccccc2)c(-c2ccccc2)c(-c2ccc(F)cc2)n1CC[C@@H](O)C[C@@H](O)CC(=O)[O-].[Ca+2] [atorvastatin calcium]
